In patent publication US20230173018A1, “CASPOFUNGIN DERIVATIVES AND ASSAYS FOR EVALUATING ANTIFUNGAL TREATMENT EFFICACY” (priority 2020, published 2023):

Experiments:
Type in all cases: cell-based
[1] = system: C. glabrata TGL00294; test: microbe, parasite or virus in culture; conditions: strain no. 38, TGL00294, parental BG2, FKS mutant
Source text: (§1) The antifungal activities of compounds 1a, 1 and 2 (collectively: caspofungin derivatives) were compared to that of caspofungin and CSF-BOD using a panel of 49 C. albicans and C. glabrata strains (Tables 1 and 2). The panel included ATCC strains and clinical isolates as well a collection of caspofungin-responsive strains and their corresponding isogenic caspofungin-resistant derivatives, constructed by introducing point mutations within and near the defined hotspots in the FKS1 and/or FKS2 genes of the GS complex. Minimal inhibitory concentration (MIC) values for all strains were determined using the broth double dilution method and are summarized in FIG. 2 and Table 2. […] The clinical breakpoints (threshold) for caspofungin-resistance in C. albicans and C. glabrata are 1 μg/mL and 0.5 μg/mL, respectively.

[2] = system: C. glabrata TGL00275; test: microbe, parasite or virus in culture; conditions: strain no. 32, TGL00275, FKS mutant
Source text: as §1

[3] = system: C. glabrata TGL00256; test: microbe, parasite or virus in culture; conditions: strain no. 24, TGL00256, parental CST34, FKS mutant
Source text: as §1

[4] = system: C. glabrata TGL00263; test: microbe, parasite or virus in culture; conditions: strain no. 28, TGL00263, parental CST78, FKS mutant
Source text: as §1

[5] = system: C. glabrata TGL00293; test: microbe, parasite or virus in culture; conditions: strain no. 37, TGL00293, parental BG2, FKS mutant
Source text: as §1

[6] = system: C. glabrata TGL00253; test: microbe, parasite or virus in culture; conditions: strain no. 20, TGL00253, parental CST109, FKS2 mutant
Source text: as §1

[7] = system: C. albicans T-2068 (DP-C42); test: microbe, parasite or virus in culture; conditions: strain no. 4, T-2068 (DP-C42), parental SC5314, FKS1 HS1-F641S mutation
Source text: as §1

[8] = system: C. glabrata TGL00258; test: microbe, parasite or virus in culture; conditions: strain no. 25, TGL00258, parental CST34, FKS mutant
Source text: as §1

[9] = system: C. glabrata TGL00091; test: microbe, parasite or virus in culture; conditions: strain no. 35, TGL00091, FKS mutant
Source text: as §1

[10] = system: C. albicans DPL1015 (DP-A15); test: microbe, parasite or virus in culture; conditions: strain no. 2, DPL1015 (DP-A15), parental SC5314, FKS1 mutant HS1-S645S/P
Source text: as §1

[11] = system: C. albicans SN95; test: microbe, parasite or virus in culture
Source text: as §1

[12] = system: C. glabrata TGL00264; test: microbe, parasite or virus in culture; conditions: strain no. 29, TGL00264, parental CST78, FKS mutant
Source text: as §1

[13] = system: C. glabrata TGL00277; test: microbe, parasite or virus in culture; conditions: strain no. 33, TGL00277, parental EF1620, FKS mutant
Source text: as §1

[14] = system: C. albicans ATCC 10231; test: MIC, broth double dilution; conditions: strain no. 11, C. albicans ATCC 10231
Source text: as §1

[15] = system: C. glabrata T-191 (11-331); test: MIC, broth double dilution; conditions: strain no. 43, T-191 (11-331), clinical isolate
Source text: as §1

[16] = system: C. albicans ATCC 24433; test: MIC, broth double dilution; conditions: strain no. 6, C. albicans ATCC 24433
Source text: as §1

[17] = system: C. glabrata CST34; test: MIC, broth double dilution; conditions: strain no. 21, C. glabrata CST34 (parental)
Source text: as §1

[18] = system: C. albicans SC5314; test: MIC, broth double dilution; conditions: strain no. 1, C. albicans SC5314, WT
Source text: as §1

[19] = system: C. glabrata ATCC 66032; test: MIC, broth double dilution; conditions: strain no. 40, C. glabrata ATCC 66032
Source text: as §1

[20] = system: C. glabrata BG2; test: MIC, broth double dilution; conditions: strain no. 34, C. glabrata BG2
Source text: as §1

[21] = system: C. glabrata ATCC 15126; test: MIC, broth double dilution; conditions: strain no. 41, C. glabrata ATCC 15126
Source text: as §1

[22] = system: C. glabrata T-984 (11-078); test: MIC, broth double dilution; conditions: strain no. 48, T-984 (11-078), clinical isolate
Source text: as §1

[23] = system: C. glabrata T-192 (1775); test: MIC, broth double dilution; conditions: strain no. 44, T-192 (1775), clinical isolate
Source text: as §1

[24] = system: C. glabrata T-190 (11-304); test: MIC, broth double dilution; conditions: strain no. 42, T-190 (11-304), clinical isolate
Source text: as §1

[25] = system: C. glabrata EF1620; test: MIC, broth double dilution; conditions: strain no. 31, C. glabrata EF1620
Source text: as §1

[26] = system: C. albicans SN152; test: MIC, broth double dilution
Source text: as §1

[27] = system: C. glabrata T-982 (11-181); test: MIC, broth double dilution; conditions: strain no. 46, T-982 (11-181), clinical isolate
Source text: as §1

[28] = system: C. glabrata T-983 (11-079); test: MIC, broth double dilution; conditions: strain no. 47, T-983 (11-079), clinical isolate
Source text: as §1

[29] = system: C. glabrata T-193 (11-282); test: MIC, broth double dilution; conditions: strain no. 45, T-193 (11-282), clinical isolate
Source text: as §1

[30] = system: C. glabrata ATCC 90030; test: MIC, broth double dilution; conditions: strain no. 16, C. glabrata ATCC 90030, WT
Source text: as §1

[31] = system: C. albicans BWP17; test: MIC, broth double dilution
Source text: as §1

[32] = system: C. glabrata ATCC 2001; test: MIC, broth double dilution; conditions: strain no. 39, C. glabrata ATCC 2001
Source text: as §1

[33] = system: C. glabrata CST109; test: MIC, broth double dilution; conditions: strain no. 18, C. glabrata CST109 (parental)
Source text: as §1

Measured: MIC

CN(C)c1ccc2c(-c3ccc(C(=O)NCCCN=[N+]=[N-])cc3C(=O)[O-])c3ccc(=[N+](C)C)cc-3oc2c1 [Compound 5-TMR-azide]
>64 µg/mL: [1] | [2] | [3] | [4] | [5] | [6] | [7] | [8] | [9] | [10] | [11] | [12] | [13] | [14] | [15] | [16] | [17] | [18] | [19] | [20] | [21] | [22] | [23] | [24] | [25] | [26] | [27] | [28] | [29] | [30] | [31] | [32] | [33]
